Values quoted from earlier work, collected in patent publication US6406894B1, “Process for preparing polyvalent and physiologically degradable carbohydrate-containing polymers by enzymatic glycosylation reactions and the use thereof for preparing carbohydrate building blocks” (Glycorex AB, priority 1992, dated 2002).

Molecular target: T1, E-selectin-IgG (Homo sapiens, UniProt P16581)
T1 construct: soluble fusion proteins formed between the extracytoplasmic domain of E- or P-selectin together with the constant region of a human immunoglobulin of subclass IgG1; made in house; host or cells: COS-7 cells, transient transfection with DEAE-dextran; the culture supernatant was used and captured on plates coated with anti-human IgG
Conditions: comparative value, c.f. EPA 93 119 098.7; read-out: Comparative value: IC50 of HL60 cell adhesion to E-selectin-IgG

T1 sequence (P16581 with tags, fused parts or gaps): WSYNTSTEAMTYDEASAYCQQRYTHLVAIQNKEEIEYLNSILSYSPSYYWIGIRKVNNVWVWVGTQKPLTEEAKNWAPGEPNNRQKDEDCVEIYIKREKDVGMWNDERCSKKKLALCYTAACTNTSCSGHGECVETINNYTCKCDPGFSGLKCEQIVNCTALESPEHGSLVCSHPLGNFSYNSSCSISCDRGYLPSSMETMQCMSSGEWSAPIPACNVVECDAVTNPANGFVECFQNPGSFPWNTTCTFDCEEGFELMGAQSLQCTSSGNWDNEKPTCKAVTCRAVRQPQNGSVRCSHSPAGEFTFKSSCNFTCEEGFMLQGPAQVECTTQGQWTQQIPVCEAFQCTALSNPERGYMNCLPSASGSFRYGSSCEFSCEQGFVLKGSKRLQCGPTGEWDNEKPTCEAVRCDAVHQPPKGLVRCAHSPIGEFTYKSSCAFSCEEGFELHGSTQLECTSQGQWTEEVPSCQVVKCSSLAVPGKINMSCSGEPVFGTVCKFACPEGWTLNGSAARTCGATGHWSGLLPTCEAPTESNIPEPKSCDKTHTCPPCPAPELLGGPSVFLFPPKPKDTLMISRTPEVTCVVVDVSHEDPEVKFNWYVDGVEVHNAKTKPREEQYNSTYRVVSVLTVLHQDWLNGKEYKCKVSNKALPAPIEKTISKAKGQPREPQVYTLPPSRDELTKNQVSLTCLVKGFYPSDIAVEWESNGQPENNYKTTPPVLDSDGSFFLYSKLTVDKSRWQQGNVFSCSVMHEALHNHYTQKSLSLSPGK

In the case of CC(=O)NC1C(O)CC(OC2C(O)C(CO)OC(OC3C(CO)OC(OCCCCCCN)C(NC(C)=O)C3OC3OC(C)C(O)C(O)C3O)C2O)(C(=O)O)OC1C(O)C(O)CO (stereo not shown) [Sialyl-Le^x—O(CH2)6NH2], the IC50 is given as 1000 µM.
